Measured values as given in patent US8084470B2, “Substituted nicotinamide compounds and uses thereof” (Gruenenthal GmbH, priority 2007, dated 2011).

What was measured:
[1] = system: male rats (Sprague-Dawley); assay: Formalin test, rat (second phase); format: in vivo; conditions: pain rate vs vehicle control, late phase
Procedure: The investigations to determine the antinociceptive activity of the compounds were carried out in the formalin test on male rats (Sprague-Dawley, 150-170 g).
In the formalin test, a distinction is made between the first (early) phase (0-15 min after formalin injection) and the second (late) phase (15-60 min after formalin injection) (D. Dubuisson, S. G. Dennis, Pain 4, 161-174 (1977)). The early phase, as a direct reaction to the formalin injection, represents a model for acute pain, while the late phase is regarded as a model for persistent (chronic) pain (T. J. Coderre, J. Katz, A. L. Vaccarino, R. Meizack, Pain, Vol. 52, p. 259, 1993).
The compounds according to the invention were investigated in the second phase of the formalin test in order to obtain information about the activity of substances in the case of chronic/inflammatory pain.
A nociceptive reaction was induced in freely mobile test animals by means of a single subcutaneous formalin injection (50 μl, 5% strength) into the dorsal side of the right rear paw, the reaction manifesting itself in the following behaviour parameters: lifting and holding of the affected paw (score 1), shaking or twitching (score 2), licking and biting (score 3). The differing behaviors induced by the formalin injection were detected continuously by observation of the animals in the late phase of the formalin test and were weighted differently in an evaluation. Normal behavior, in which the animal puts its weight on all four paws equally, was recorded as score 0. The time of administration before the formalin injection was chosen in dependence on the mode of administration of the compounds according to the invention (intraperitoneal: 15 min, intravenous: 5 min). After injection of substances that have antinociceptive activity in the formalin test, the described behaviours (score 1-3) of the animals are reduced or even eliminated. […] The nociceptive behaviour was calculated as the so-called pain rate (PR). […] Based on the PR calculations, the activity of the substance was determined as the change compared with the control in percent.

[2] = molecular target: T1, hKCNQ2/3 (Homo sapiens, UniProt O43525+O43526); assay: Fluorescence assay using a voltage sensitive dye; format: cell-based; set-up: expressed in transfected cells; host or cells: CHO-K1
Procedure: Biological Data Fluorescence Assay Using a Voltage Sensitive Dye
Human CHO-K1 cells expressing KCNQ2/3 channels are cultivated adherently at 37° C., 5% CO2 and 95% humidity in cell culture bottles (e.g. 80 cm^2 TC flasks, Nunc) with DMEM-high glucose (Sigma Aldrich, D7777) including 10% FCS (PAN Biotech, e.g. 3302-P270521) or alternatively with MEM Alpha Medium (1×, liquid, Invitrogen, #22571), 10% fetal calf serum (FCS) (Invitrogen, #10270-106, heat-inactivated) and the necessary selection antibiotics.
Before being distributed for the measurements, the cells are washed with a 1×DPBS buffer without Ca^2+/Mg^2+ (e.g. Invitrogen, #14190-094) and detached from the bottom of the culture vessel by means of Accutase (PAA Laboratories, #L11-007) (incubation with Accutase for 15 min at 37° C.). The cell count then present is determined using a CASY™ cell counter (TCC model, Schärfe System) in order subsequently to apply, according to density optimization for the individual cell line, 20,000-30,000 cells/well/100 μl of the described nutrient medium to 96-well measuring plates of the Corning™ CellBIND™ type (Flat Clear Bottom Black Polystyrene Microplates, #3340). Incubation is then carried out for one hour at room temperature, without gassing or adjusting the humidity, followed by incubation for 24 hours at 37° C., 5% CO2 and 95% humidity.
The voltage-sensitive fluorescent dye from the Membrane Potential Assay Kit (Red™ Bulk format part R8123 for FLIPR, MDS Analytical Technologies™) is prepared by dissolving the contents of a vessel Membrane Potential Assay Kit Red Component A in 200 ml of extracellular buffer (ES buffer, 120 mM NaCl, 1 mM KCl, 10 mM HEPES, 2 mM CaCl2, 2 mM MgCl2, 10 mM glucose; pH 7.4). After removal of the nutrient medium, the cells are washed with 200 μl of ES buffer, then covered with a layer of 100 μl of the dye solution prepared above and incubated for 45 min at room temperature with the exclusion of light.
The fluorescence measurements are carried out with a BMG Labtech FLUOstar™ or BMG Labtech NOVOstar™ or BMG Labtech POLARstar™ instrument (525 nm excitation, 560 nm emission, Bottom Read mode). After incubation of the dye, 50 μl of the test substances in the desired concentrations, or 50 μl of ES buffer for control purposes, are introduced into separate cavities of the measuring plate and incubated for 30 min at room temperature while being shielded from light. The fluorescence intensity of the dye is then measured for 5 min and the fluorescence value F1 of each well is thus determined at a given, constant time. 15 μL of a 100 mM KCl solution ([…]) are then added to each well. The change in fluorescence is subsequently measured until all the relevant measured values have been obtained (mainly 5-30 min). At a given time after KCl application, a fluorescence value F2 is determined, in this case at the time of the fluorescence peak.
For calculation, the fluorescence intensity F2 is compared with the fluorescence intensity F1, and the agonistic activity of the target compound on the potassium channel is determined therefrom. F2 and F1 are calculated as follows:
[formula] In order to determine whether a substance has an agonistic activity,
[formula] for example, can be compared with
[formula] of control cells.
[formula] is determined by adding to the reaction batch only the buffer solution instead of the substance to be tested, determining the value F1K of the fluorescence intensity, adding the potassium ions as described above and measuring a value F2K of the fluorescence intensity. Then F2K and F1K are calculated as follows:
[formula] A substance has an agonistic activity on the potassium channel when
[formula] is greater than
[formula] Independently of the comparison of
[formula] it is also possible to conclude that a target compound has agonistic activity if an increase in
[formula] is to be observed as the dosage of the target compound increases. […]

[3] = molecular target: T1, hKCNQ2/3; assay: Voltage clamp (patch-clamp) measurements; format: cell-based; set-up: expressed in transfected cells; host or cells: CHO-K1 (stably transfected); conditions: for MAN rel eff @ 10 μm [RG = 1]: test substance 10 μM at −40 mV, increase in current standardized to retigabine (10 μM) effect = 1
Procedure: Voltage Clamp Measurements
In order to confirm a KCNQ2/3-agonistic action of the substances electrophysiologically, patch-clamp measurements (Hamill et al., 1981) were carried out in voltage clamp mode on a stably transfected hKCNQ2/3 CHO-K1 cell line. After formation of the gigaseal, the cells were first clamped at a holding potential of −60 mV. Thereafter, depolarizing voltage jumps were applied up to a potential of +20 mV (increment: 20 mV, duration: 1 second) in order to confirm the functional expression of KCNQ2/3-typical currents. The testing of the substances was carried out at a potential of −40 mV. The increase in current induced by retigabine (10 μM) at −40 mV was first recorded as a positive control on each cell. After complete washing out of the retigabine effect (duration: 80 s), the test substance (10 μM) was applied. The increase in current induced by the test substance was standardized to the retigabine effect and indicated as the relative efficacy (see below). Hamill O P, Marty A, Neher E, Sakmann B, Sigworth F J.: Improved patch-clamp techniques for high-resolution current recording from cells and cell-free membrane patches. Pflugers Arch. 1981 August; 391(2):85-100. Voltage-clamp measurements were carried out only for selected compounds: […]

[4] = system: rat; assay: Chung test on the rat; format: in vivo; conditions: iv, i.v. administration
Description: In addition, Example 89 was investigated in the Chung test on the rat.

Row | Structure (SMILES) | EC50 [2] | MAN rel eff @ 10 μm [RG = 1] [3] | also measured
1 | O=C(NCc1cccs1)c1cccnc1SCCS(=O)(=O)c1ccccc1 [Example 89, 2-(2-(phenylsulfonyl)ethylthio)-N-(thiophen-2-ylmethyl)nicotinamide] | 2280 nM |  | Change in % ([1]; 6.81 mg/kg i.v.): −74.2%; EC50 ([3]; patch-clamp, hKCNQ2/3 CHO-K1 cell line, read-out: MAN EC50): 1010 nM; ED50 [4]: 6.3 mg/kg
2 | Cc1ccc(CNC(=O)c2cccnc2SCCS(=O)(=O)c2ccccc2)o1 [Example 61, N-(5-methylfuran-2-ylmethyl)-2-(2-(phenylsulfonyl)ethylthio)nicotinamide] | 3470 nM | 0.81 | 
3 | O=C(NCCC1CCCCC1)c1cccnc1SCCS(=O)(=O)c1ccccc1 [Example 58, N-(2-cyclohexylethyl)-2-(2-(phenylsulfonyl)ethylthio)nicotinamide] | 1180 nM | 0.47 | 
4 | O=C(NCc1ccccn1)c1cccnc1SCCS(=O)(=O)c1cccc(C(F)(F)F)c1 [Example 90, N-(pyridin-2-ylmethyl)-2-(2-(3-(trifluoromethyl)phenylsulfonyl)ethylthio)-nicotinamide] | 2490 nM | 0.79 | 
5 | O=C(NCc1cccs1)c1cccnc1SCCSc1cccc(C(F)(F)F)c1 [Example 73, N-(thiophen-2-ylmethyl)-2-(2-(3-(trifluoromethyl)phenylthio)ethylthio)-nicotinamide] |  |  | Change in % ([1]; 1 mg/kg i.v.): −29.9%
6 | Cc1cccc(CNC(=O)c2cccnc2SCCS(=O)(=O)c2ccccc2)c1 [Example 65, 2-(2-(phenylsulfonyl)ethylthio)-N-(3-tolylmethyl)nicotinamide] | 580 nM | 0.4 | 
7 | O=C(NCC1CCCCC1)c1cccnc1SCCS(=O)(=O)c1ccccc1 [Example 56, N-(cyclohexylmethyl)-2-(2-(phenylsulfonyl)ethylthio)nicotinamide] | 1010 nM | 1.06 | Change in % ([1]; 2.15 mg/kg i.v.): −34.1%
